{"source": "patent US20250114486A1", "about": "“MARKED FATTY ACID DERIVATIVE, PRECURSOR COMPOUND THEREOF, AND USE THEREOF IN CONTRAST AGENT” (BEIJING NORMAL UNIVERSITY, priority 2022, published 2025)", "key": {"[1]": {"assay": "Metabolism study in female SD rats (modified Folch extraction, ^99mTc gamma counting)", "type": "in vivo", "description": "Female SD rats (180-220 g, fasted overnight) were injected with […] radioactive ^99mTc complex 80 (200-300 μCi, dissolved in 10% EtOH saline, 1000 μL) (n=3) through the tail vein. Heart, intestine and liver samples were collected at 60 min and 120 min after injection. Among them, the SD rats killed at 60 min post-injection were divided into two groups: one group of fasting female SD rats were injected with saline (0.2 mL) solution containing fatty acid β-oxidation inhibitor TMZ (40 mg/kg) and our radiotracer (TMZ-administratied group), and the other group of fasting female SD rats were injected with radioactive ^99mTc complex 80 only (control group). Heart, intestine or liver samples were homogenized in a mixture of CHCl3—CH3OH in a volume ratio of 2:1, then 40% urea and 5% sulfuric acid aqueous solution were added, and they were sonicated and centrifuged at 2000 rpm for 10 min (a modified Folch extraction method). The ^99mTc gamma counting were performed on the resulting aqueous phase, organic phase and residual tissue particle phase (n=3).\nIn addition, the residual tissue particles obtained from the heart samples were measured for radioactivity counts, then heated and dissolved in 1 mol/L NaOH solution at 90° C. for 1 h, cooled, and then treated with 50% trichloroacetic acid (TCA). After centrifugation at 2000 rpm for 10 min, the obtained supernatant and precipitate were ^99mTc gamma counting."}, "fatty acid β-oxidation": {"tested_on": "fatty acid β-oxidation", "assay": "TMZ (trimetazidine hydrochloride) blocking experiment, biodistribution in female SD rats", "type": "in vivo", "description": "(§1) Female SD rats (180-220 g, n=3) were fasted for 12 h before the experiment, and the purified radioactive 99mTc complexes 78-81 were prepared into physiological saline (containing 10% ethanol) solutions of about 250-350 μCi/mL. 200 μL of the above solution was injected into the tail vein of female SD rats, and the rats were killed by cervical dislocation at five time points, 15, 30, 60, 120 and 240 min after the tail vein injection. The blood, brain, heart, liver, spleen, lung, kidney, muscle, bone, large intestine, small intestine, stomach and tail were collected, weighed and counted, and the count distribution of each tissue and organ was calculated (unit: % ID/g, the unit of large intestine, small intestine and stomach is % ID), and the data are the mean±standard deviation of three mice in each phase. At the same time, 200 μL of the above solution was diluted to 20 mL, which was used as the % ID without deducting the tail count.\nTrimetazidine hydrochloride (TMZ) is a widely used anti-anginal drug and an inhibitor of fatty acid β-oxidation. […] Therefore, in order to investigate the sensitivity of radioactive ^99mTc complex 80 to fatty acid β-oxidation, we first performed a TMZ blocking experiment from the perspective of biodistribution. Among them, SD rats killed 60 min after injection were divided into two groups: one group of fasting female SD rats were injected with saline (0.2 mL) solution containing TMZ (40 mg/kg) and our radiotracer ^99mTc complex 80 (TMZ administration group), and the other group of fasting female SD rats were injected with radioactive ^99mTc complex 80 only (control group). The absolute myocardial uptake of the control SD rats and the TMZ-administered SD rats was compared 60 min after the tail vein injection of our radiotracer 80 (corresponding to the time point of the peak absolute myocardial uptake). […] The effect of TMZ administration on the metabolic fate of the radioactive ^99mTc complex 80 will also be discussed in Example 4 below."}, "[2]": {"assay": "In vivo biodistribution of radioactive ^99mTc complexes in female SD rats", "parameters": "species or system female Sprague-Dawley (SD) rats", "description": "as §1"}, "[3]": {"details": "heart in TMZ-administrated SD rats (TMZ 40 mg/kg), 60 min"}, "[4]": {"details": "heart in control SD rats, 60 min, percentage of total ^99mTc radioactivity counts"}, "[5]": {"details": "heart in control SD rats, 120 min"}, "[6]": {"details": "intestine in control SD rats, 60 min"}, "[7]": {"details": "intestine in control SD rats, 120 min"}, "[8]": {"details": "liver in control SD rats, 60 min"}, "[9]": {"details": "liver in control SD rats, 120 min"}, "[10]": {"details": "female SD rats, 60 min, blocked by trimetazidine hydrochloride (TMZ 40 mg/kg)"}, "[11]": {"details": "female SD rats, 60 min, blocked by trimetazidine hydrochloride (TMZ 40 mg/kg), unit % ID"}, "[12]": {"details": "15 min post-injection, unit % ID"}}, "note": "“And” between values parts separate entries of the source, which are not always exact repeats. Equal entries are not always repeated.", "data": [{"smiles": "COC(C)(C)C[N+]#[C][99Tc-5]([C]#[N+]CC(C)(C)OC)([C]#[N+]CC(C)(C)OC)([C]#[N+]CC(C)(C)OC)([C]#[N+]CC(C)(C)OC)[C]#[N+]CC(C)(C)OCCCCCSCCCCC(=O)O", "note": "[^99mTc complex 80]", "values": [{"measurement": "reduction of residual tissue granular phase proportion, TMZ-treated vs control heart samples", "setting": "[1]; 60 min after injection, P<0.01", "value": 61, "unit": "%"}, {"measurement": "precipitated ^99mTc radioactivity count as share of residual tissue granular phase", "setting": "[1]; control SD rat heart, 60 min, dissolved in 1 mol/L NaOH 90° C. 1 h, 50% trichloroacetic acid added", "value": 86.0, "unit": "%"}, {"measurement": "% aqueous fraction", "setting": "[1]; [3]", "value": "0.29 ± 0.06", "unit": "%"}, {"measurement": "% organic fraction", "setting": "[1]; [3]", "value": "73.11±2.03", "unit": "%"}, {"measurement": "% residual tissue pellet", "setting": "[1]; [3]", "value": "26.60±2.09", "unit": "%"}, {"measurement": "% aqueous fraction", "setting": "[1]; [4]", "value": "0.50 ± 0.21", "unit": "%"}, {"measurement": "% organic fraction", "setting": "[1]; [4]", "value": "31.38±2.48", "unit": "%"}, {"measurement": "% residual tissue pellet", "setting": "[1]; [4]", "value": "68.54±3.66% and 68.12 ± 2.69%"}, {"measurement": "% aqueous fraction", "setting": "[1]; [5]", "value": "0.53 ± 0.23", "unit": "%"}, {"measurement": "% organic fraction", "setting": "[1]; [5]", "value": "33.20 ± 4.56", "unit": "%"}, {"measurement": "% residual tissue pellet", "setting": "[1]; [5]", "value": "66.27±34.54% and 66.27 ± 4.54%"}, {"measurement": "% aqueous fraction", "setting": "[1]; [6]", "value": "0.54 ± 0.24", "unit": "%"}, {"measurement": "% organic fraction", "setting": "[1]; [6]", "value": "38.76 ± 5.69", "unit": "%"}, {"measurement": "% residual tissue pellet", "setting": "[1]; [6]", "value": "60.70±5.71", "unit": "%"}, {"measurement": "% aqueous fraction", "setting": "[1]; [7]", "value": "1.68 ± 0.44", "unit": "%"}, {"measurement": "% organic fraction", "setting": "[1]; [7]", "value": "32.77 ± 3.98", "unit": "%"}, {"measurement": "% residual tissue pellet", "setting": "[1]; [7]", "value": "65.55±3.54", "unit": "%"}, {"measurement": "% aqueous fraction", "setting": "[1]; [8]", "value": "0.66 ± 0.21", "unit": "%"}, {"measurement": "% organic fraction", "setting": "[1]; [8]", "value": "35.30 ± 4.75", "unit": "%"}, {"measurement": "% residual tissue pellet", "setting": "[1]; [8]", "value": "64.04±4.90", "unit": "%"}, {"measurement": "% aqueous fraction", "setting": "[1]; [9]", "value": "0.85 ± 0.30", "unit": "%"}, {"measurement": "% organic fraction", "setting": "[1]; [9]", "value": "31.92 ± 3.83", "unit": "%"}, {"measurement": "% residual tissue pellet", "setting": "[1]; [9]", "value": "67.23 ± 4.08", "unit": "%"}, {"measurement": "decrease of absolute myocardial uptake, TMZ-administered vs control SD rats", "setting": "fatty acid β-oxidation; 60 min post-injection, TMZ 40 mg/kg, P<0.01", "value": 51, "unit": "%"}, {"measurement": "sensitivity to myocardial fatty acid β-oxidation", "setting": "fatty acid β-oxidation; TMZ blocking, female SD rats", "value": "quite sensitive"}, {"measurement": "Biodistribution: Blood", "setting": "fatty acid β-oxidation; [10]", "value": "0.024 ± 0.003", "unit": "ID %/g"}, {"measurement": "Biodistribution: Bone", "setting": "fatty acid β-oxidation; [10]", "value": "0.07 ± 0.01", "unit": "ID %/g"}, {"measurement": "Biodistribution: Brain", "setting": "fatty acid β-oxidation; [10]", "value": "0.009 ± 0.005", "unit": "ID %/g"}, {"measurement": "Biodistribution: Heart", "setting": "fatty acid β-oxidation; [10]", "value": "1.01 ± 0.19", "unit": "ID %/g"}, {"measurement": "Biodistribution: Kidney", "setting": "fatty acid β-oxidation; [10]", "value": "0.97 ± 0.28", "unit": "ID %/g"}, {"measurement": "Biodistribution: Liver", "setting": "fatty acid β-oxidation; [10]", "value": "0.51 ± 0.16", "unit": "ID %/g"}, {"measurement": "Biodistribution: Lungs", "setting": "fatty acid β-oxidation; [10]", "value": "0.16 ± 0.02", "unit": "ID %/g"}, {"measurement": "Biodistribution: Muscle", "setting": "fatty acid β-oxidation; [10]", "value": "0.31 ± 0.06", "unit": "ID %/g"}, {"measurement": "Biodistribution: Spleen", "setting": "fatty acid β-oxidation; [10]", "value": "0.10 ± 0.04", "unit": "ID %/g"}, {"measurement": "Heart-to-Blood ratio", "setting": "fatty acid β-oxidation; [10]", "value": "41.25 ± 3.12"}, {"measurement": "Heart-to-Liver ratio", "setting": "fatty acid β-oxidation; [10]", "value": "2.06 ± 0.41"}, {"measurement": "Heart-to-Lungs ratio", "setting": "fatty acid β-oxidation; [10]", "value": "6.28 ± 0.29"}, {"measurement": "Biodistribution: Large Intestine", "setting": "fatty acid β-oxidation; [11]", "value": "15.54 ± 6.05", "unit": "% ID"}, {"measurement": "Biodistribution: Small Intestine", "setting": "fatty acid β-oxidation; [11]", "value": "16.59 ± 4.32", "unit": "% ID"}, {"measurement": "Biodistribution: Stomach", "setting": "fatty acid β-oxidation; [11]", "value": "1.10 ± 0.19", "unit": "% ID"}, {"measurement": "Biodistribution: Blood", "setting": "[2]; 15 min post-injection", "value": "0.018 ± 0.003", "unit": "ID %/g"}, {"measurement": "Biodistribution: Bone", "setting": "[2]; 15 min post-injection", "value": "0.11 ± 0.05", "unit": "ID %/g"}, {"measurement": "Biodistribution: Brain", "setting": "[2]; 15 min post-injection", "value": "0.008 ± 0.004", "unit": "ID %/g"}, {"measurement": "Biodistribution: Heart", "setting": "[2]; 15 min post-injection", "value": "0.94 ± 0.16", "unit": "ID %/g"}, {"measurement": "Biodistribution: Kidney", "setting": "[2]; 15 min post-injection", "value": "2.43 ± 0.10", "unit": "ID %/g"}, {"measurement": "Biodistribution: Liver", "setting": "[2]; 15 min post-injection", "value": "0.49 ± 0.03", "unit": "ID %/g"}, {"measurement": "Biodistribution: Lungs", "setting": "[2]; 15 min post-injection", "value": "0.14 ± 0.04", "unit": "ID %/g"}, {"measurement": "Biodistribution: Muscle", "setting": "[2]; 15 min post-injection", "value": "0.14 ± 0.04", "unit": "ID %/g"}, {"measurement": "Biodistribution: Spleen", "setting": "[2]; 15 min post-injection", "value": "0.23 ± 0.06", "unit": "ID %/g"}, {"measurement": "Heart-to-Blood ratio", "setting": "[2]; 15 min post-injection", "value": "53.37 ± 6.93"}, {"measurement": "Heart-to-Liver ratio", "setting": "[2]; 15 min post-injection", "value": "1.91 ± 0.40"}, {"measurement": "Heart-to-Lungs ratio", "setting": "[2]; 15 min post-injection", "value": "7.04 ± 1.69"}, {"measurement": "absolute myocardial uptake value", "setting": "[2]; 15 min post-injection", "value": "0.94±0.16", "unit": "% ID/g"}, {"measurement": "Biodistribution: Large Intestine", "setting": "[2]; [12]", "value": "5.34 ± 1.37", "unit": "% ID"}, {"measurement": "Biodistribution: Small Intestine", "setting": "[2]; [12]", "value": "8.49 ± 0.85", "unit": "% ID"}, {"measurement": "Biodistribution: Stomach", "setting": "[2]; [12]", "value": "0.27 ± 0.09", "unit": "% ID"}, {"measurement": "Biodistribution: Blood", "setting": "[2]; 30 min post-injection", "value": "0.026 ± 0.003", "unit": "ID %/g"}, {"measurement": "Biodistribution: Bone", "setting": "[2]; 30 min post-injection", "value": "0.10 ± 0.01", "unit": "ID %/g"}, {"measurement": "Biodistribution: Brain", "setting": "[2]; 30 min post-injection", "value": "0.010 ± 0.003", "unit": "ID %/g"}, {"measurement": "Biodistribution: Heart", "setting": "[2]; 30 min post-injection", "value": "1.42 ± 0.32", "unit": "ID %/g"}, {"measurement": "Biodistribution: Kidney", "setting": "[2]; 30 min post-injection", "value": "4.66 ± 0.51", "unit": "ID %/g"}]}]}
